The text below walks through data of BindingDB's records for doi:10.1021/cc990074a (Ariad Pharmaceuticals, 2000).

The target in the assay is Proto-oncogene tyrosine-protein kinase Src (Homo sapiens). Nature of the assay: Compounds were tested for binding to Src SH2 using a fluorescence polarization binding assay according to methods previously described. IC50 values were assigned to individual compounds according to their competitive binding affinity versus a high-affinity peptide probe, fluorescein-pTyr-pTyr-pTyr-Ile-Glu-NH2.

The structures appear in SMILES notation.

The IC50 is the concentration needed to halve the response being measured. Lower therefore signals inhibition by little substance. As to `NC(=O)c1cc(CNC(=O)c2ccc(OP(=O)(O)O)cc2)ccc1OCC1CCCCC1` [Src SH2 inhibitor, 3], the IC50 was found to be 6.5 µM. `O=C(NCc1ccc(OCC2CCCCC2)cc1)c1ccc(OP(=O)(O)O)cc1` [Src SH2 inhibitor, 4] returned an IC50 greater than 100 µM. Then `COc1ccc(C(C)NC(=O)C(Cc2ccc(OP(=O)(O)O)cc2)NC(C)=O)cc1C(N)=O` (stereo not drawn) [Src SH2 inhibitor, 1b], with 37 µM.
